Reference: PubChem BioAssay (NCI)
“And” between values parts separate entries of the source, which are not always exact repeats. Equal values may be shown once.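 Compound exposure: 48 hours, 5 concentrations, 96-well plates. The concentration for 50% growth inhibition is given as GI50. Definition used: TGI = concentration required for complete inhibition of growth.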

Experiments:
Assay in all cases: NCI-60 cell line screen, 48 h
IGROV1 ovarian = test system: IGROV1 ovarian
OVCAR-8 ovarian = test system: OVCAR-8 ovarian
DU-145 prostate = test system: DU-145 prostate
HCT-15 colon = test system: HCT-15 colon
SK-OV-3 ovarian = test system: SK-OV-3 ovarian
A549 NSCLC = test system: A549 NSCLC
PC-3 prostate = test system: PC-3 prostate
KM12 colon = test system: KM12 colon
NCI-H522 lung = test system: NCI-H522 lung
MDA-MB-435 = test system: MDA-MB-435

SMILES	GI50 (IGROV1 ovarian)	TGI (IGROV1 ovarian)	GI50 (OVCAR-8 ovarian)	TGI (OVCAR-8 ovarian)	GI50 (DU-145 prostate)	TGI (DU-145 prostate)	GI50 (HCT-15 colon)	TGI (HCT-15 colon)	GI50 (SK-OV-3 ovarian)	TGI (SK-OV-3 ovarian)	GI50 (A549 NSCLC)	TGI (A549 NSCLC)	GI50 (PC-3 prostate)	TGI (PC-3 prostate)	GI50 (KM12 colon)	TGI (KM12 colon)	GI50 (NCI-H522 lung)	TGI (NCI-H522 lung)	GI50 (MDA-MB-435)	TGI (MDA-MB-435)
Cc1cc2nc(-c3c(F)cccc3Cl)n(Cc3c(F)cccc3Cl)c2cc1C	33 µM	> 100 µM	18.9 µM	46.6 µM	16.1 µM	41.4 µM	13.9 µM	33.3 µM	19.3 µM	51.8 µM	11.7 µM	33.1 µM	3.44 µM	12.6 µM	10.5 µM	37.7 µM	20.3 µM	48.9 µM	7.33 µM	22.7 µM
COc1cc(-c2cc(=O)c3c(O)c(OC)c(OC)c(OC)c3o2)cc(OC)c1OC		> 100 µM		> 100 µM		> 100 µM		> 100 µM		26 µM		> 100 µM		> 100 µM		> 100 µM		98.6 µM		> 100 µM
C=CC(C)(O)CC/C=C(\CO)C(=O)OC1C(C)OC(O[C@](C)(C=C)CC/C=C(\CO)C(=O)O[C@H]2C[C@@]3(C(=O)OC4OC(CO)C(O)C(O)C4OC4OC(C)C(OC5OC(CO)C(O)C5O)C(OC5OC(CO)C(O)C(O)C5O)C4O)C(CC2(C)C)C2=CCC4[C@@]5(C)CC[C@H](OC6OC(COC7OC(C)C(O)C(O)C7OC7OCC(O)C(O)C7O)C(O)C(O)C6NC(C)=O)C(C)(C)C5CC[C@@]4(C)[C@]2(C)C[C@H]3O)C(O)C1O (stereo partly drawn)	2.96 µM	9.63 µM	0.372 µM	6.45 µM	0.131 µM	0.512 µM	4.72 µM	10.6 µM	0.203 µM	0.794 µM	0.286 µM	1.49 µM	0.078 µM	1.97 µM	0.285 µM	1.98 µM	0.341 µM	1.61 µM	0.0978 µM	0.382 µM
N#C/C(=C\c1ccc2[nH]ccc2c1)C(=O)c1ccc(O)c(O)c1		> 100 µM		> 100 µM		> 100 µM		> 100 µM		> 100 µM		> 100 µM		> 100 µM		> 100 µM		> 100 µM		> 100 µM
NNC(=O)C(O)C(O)C(=O)NN (stereo not drawn)		> 100 µM		> 100 µM		> 100 µM		> 100 µM		> 100 µM		> 100 µM		> 100 µM		> 100 µM		> 100 µM		> 100 µM
O=C(/C=C/c1ccccc1)CCC1C(=O)NC(=S)NC1=O				> 100 µM		> 100 µM		> 100 µM		> 100 µM		> 100 µM		> 100 µM						> 100 µM
O=C(C=C=Nc1ccccc1)C(=O)N=C=Cc1ccccc1	2.96 µM	12.3 µM	3.84 µM	14.4 µM	2.24 µM	6.82 µM	1.42 µM	4.05 µM	20.3 µM	68 µM	6.74 µM	22.9 µM	2.89 µM	8.91 µM	6.38 µM	19.1 µM	1.81 µM	4.97 µM	2.33 µM	8 µM
CCOC(=O)c1c(C)n(Cc2ccccc2)c2c1cc1oc(=O)c(=O)n3cnc2c13	28.1 µM	> 50 µM	22.8 µM	> 50 µM	11.8 µM	> 50 µM	16.2 µM	> 50 µM	> 50 µM	> 50 µM	13.6 µM	45.7 µM	10.3 µM	> 50 µM	19.2 µM	> 50 µM	> 50 µM	> 50 µM	10.7 µM	32.9 µM
O=C(NOCCO)c1cc(CN2OCCCC2=O)c(F)c(F)c1Nc1ccc(I)cc1F	0.101 µM and 0.0246 µM	> 52.5 µM	12.6 µM and > 7.77 µM	> 100 µM	12 µM and > 8.73 µM	> 100 µM	5.74 µM and > 6.24 µM	> 100 µM	22.6 µM and > 2.5 µM	> 85.8 µM	0.464 µM and 0.156 µM	> 86.2 µM	31.7 µM and > 10 µM	> 84.3 µM	0.0561 µM and 0.0719 µM	> 100 µM	18.3 µM and > 7.9 µM	> 65.4 µM	< 0.01 µM and 0.00879 µM	77.1 µM and > 10 µM
CC(C(N)=O)N(C)C(=O)c1cnc2ccccc2c1 (stereo not drawn)		> 100 µM		> 100 µM		> 100 µM		> 100 µM				> 100 µM		> 100 µM		> 100 µM		> 100 µM		> 100 µM
COc1cc2c(cc1OCCCOc1ccc(-c3nc4ccc(N5CCN(C)CC5)cc4[nH]3)cc1)N=C[C@@H]1CCCN1C2=O			< 0.01 µM	< 0.01 µM	< 0.01 µM	6.98 µM	< 0.0212 µM	42.8 µM	< 0.01 µM	22.8 µM	< 0.01 µM	< 0.0222 µM	< 0.01 µM	< 0.01 µM	< 0.01 µM		< 0.01 µM	< 0.01 µM	< 0.01 µM	< 0.01 µM
Cn1cc(C2=C(c3cn(CCCCC(=N)N)c4ccccc34)C(=O)NC2=O)c2ccccc21	> 21.9 µM	> 25 µM	> 25 µM	> 25 µM	> 25 µM	> 25 µM	> 25 µM	> 25 µM	> 25 µM	> 25 µM	> 25 µM	> 25 µM	> 25 µM	> 25 µM	20.3 µM	> 25 µM	18.6 µM	> 25 µM	10.5 µM	> 25 µM
COc1ccc(C(=O)c2cc3c(N)c(C(=O)Nc4cccc(OC)c4)sc3nc2C)cc1	0.724 µM	> 100 µM	1.75 µM	> 100 µM	0.523 µM	> 100 µM	0.479 µM	> 100 µM		> 100 µM	0.753 µM	> 100 µM	0.439 µM	> 100 µM	0.568 µM	> 100 µM	1.19 µM	> 100 µM		
Cc1cc(Nc2nc(-c3ccncc3)nc3ccccc23)n[nH]1	1.92 µM	> 100 µM	11 µM	> 100 µM	24.2 µM	> 100 µM	1.77 µM	> 100 µM	3.45 µM	> 100 µM	3.59 µM	> 100 µM			0.335 µM	> 100 µM	13.1 µM	> 100 µM	12.1 µM	> 100 µM
